pIC50: −log10 of the molar value.

Assay [1] relates to SH-SY5Y. The experiment in a line: Neuroprotective activity against human SH-SY5Y cells assessed as effect on NMDA mediated cell damage at 0.05 uM by MTT assay relative to control. It counts as functional. On the technique in general: Tetrazolium dyes change colour on reduction, which living cells bring about.
In assay [2] the test system is SH-SY5Y. The experiment in a line: Neuroprotective activity against human SH-SY5Y cells assessed as effect on NMDA mediated cell damage at 0.5 uM by MTT assay relative to control. Type of assay: functional.
The test system of assay [3] is SH-SY5Y. Briefly: Neuroprotective activity against human SH-SY5Y cells assessed as effect on NMDA mediated cell damage at 5 uM by MTT assay relative to control. Type of assay: functional.
Assay [4] addresses Glutamate receptor ionotropic, NMDA 2B (Homo sapiens, UniProt Q05586+Q13224). Briefly: Antagonist activity at NMDA receptor NR2B subunit (unknown origin).

Sequence of Glutamate receptor ionotropic, NMDA 2B (Q13224 whole entry, one chain of several): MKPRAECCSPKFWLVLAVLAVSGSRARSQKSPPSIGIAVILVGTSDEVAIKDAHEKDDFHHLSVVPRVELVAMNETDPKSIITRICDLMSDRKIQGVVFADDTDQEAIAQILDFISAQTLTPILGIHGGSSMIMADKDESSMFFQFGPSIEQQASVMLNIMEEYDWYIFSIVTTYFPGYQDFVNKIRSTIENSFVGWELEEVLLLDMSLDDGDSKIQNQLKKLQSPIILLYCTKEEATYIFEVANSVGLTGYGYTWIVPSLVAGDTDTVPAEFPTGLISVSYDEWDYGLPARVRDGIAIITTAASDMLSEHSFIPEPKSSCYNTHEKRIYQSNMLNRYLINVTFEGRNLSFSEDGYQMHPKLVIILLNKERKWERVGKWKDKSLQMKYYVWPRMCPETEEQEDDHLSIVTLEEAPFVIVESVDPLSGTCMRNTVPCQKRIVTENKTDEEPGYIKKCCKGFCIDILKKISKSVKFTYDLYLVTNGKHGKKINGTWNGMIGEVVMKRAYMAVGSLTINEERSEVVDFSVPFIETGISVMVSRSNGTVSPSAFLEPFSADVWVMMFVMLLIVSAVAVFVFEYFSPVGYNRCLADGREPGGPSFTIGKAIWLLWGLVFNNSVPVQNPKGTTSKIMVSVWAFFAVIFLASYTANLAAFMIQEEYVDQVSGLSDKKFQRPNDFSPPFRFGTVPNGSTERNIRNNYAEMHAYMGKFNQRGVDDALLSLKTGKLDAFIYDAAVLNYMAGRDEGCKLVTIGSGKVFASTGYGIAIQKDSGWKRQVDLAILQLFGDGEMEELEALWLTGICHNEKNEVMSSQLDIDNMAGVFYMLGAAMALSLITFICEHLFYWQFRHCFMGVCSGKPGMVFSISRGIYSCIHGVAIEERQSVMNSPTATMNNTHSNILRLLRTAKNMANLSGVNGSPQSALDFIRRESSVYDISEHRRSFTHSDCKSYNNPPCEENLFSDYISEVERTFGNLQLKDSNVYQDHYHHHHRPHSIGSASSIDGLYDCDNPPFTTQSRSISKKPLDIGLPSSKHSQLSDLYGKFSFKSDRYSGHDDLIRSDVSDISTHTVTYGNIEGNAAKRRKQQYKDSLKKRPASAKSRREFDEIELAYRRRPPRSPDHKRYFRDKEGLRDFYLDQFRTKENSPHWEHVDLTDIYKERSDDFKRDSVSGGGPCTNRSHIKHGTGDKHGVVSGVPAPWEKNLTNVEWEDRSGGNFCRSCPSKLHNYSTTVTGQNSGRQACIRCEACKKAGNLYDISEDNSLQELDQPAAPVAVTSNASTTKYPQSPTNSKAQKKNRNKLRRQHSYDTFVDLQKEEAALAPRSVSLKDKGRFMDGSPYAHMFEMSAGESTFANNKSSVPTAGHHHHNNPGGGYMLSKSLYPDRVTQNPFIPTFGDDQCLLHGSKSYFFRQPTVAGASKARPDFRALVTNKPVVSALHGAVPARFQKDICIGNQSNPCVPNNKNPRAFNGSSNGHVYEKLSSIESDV

In the case of `O=C(NNC(=O)[C@@H]1CCC2=Nc3ccc(Cl)cc3CN21)c1ccc(F)cc1`, the values for the Activity in assay [1], in assay [2] and in assay [3] were 22.58%, 20.68% and 17.26%, respectively.

By pIC50 is commonly meant the negative decadic logarithm of the IC50, by convention in mol/L. Read a low pIC50 as a high IC50. Consider `Cc1nccn1Cc1cc(-c2ccc(F)c(C(F)F)c2)cnn1` [EVT-101 FREE BASE], for which, in assay [4], the negative-log IC50 (pIC50) was 7.77.

With `Nc1ccc(C(=O)NNC(=O)[C@@H]2CCC3=Nc4ccc(Cl)cc4CN32)cc1`, the Activity in assay [1] is recorded as 30.71%; in assay [2] it was 25.28%; in assay [3], 20.43%.

Regarding `Nc1ccc(CCNC(=O)[C@@H]2CCC3=Nc4ccc(Br)cc4CN32)cc1`, the values for the Activity in assay [1], in assay [2] and in assay [3] were -15.74%, -15.08% and -11.03%, respectively.

For the compound `O=C(NCCc1ccc(O)cc1)[C@@H]1CCC2=Nc3ccc(Cl)cc3CN21`, the Activity in assay [1] stood at 28.93%; in assay [2], 28.33%; in assay [3], 21.32%.

As to `O=C(NCCc1cccc(O)c1)[C@@H]1CCC2=Nc3ccc(Cl)cc3CN21`, the Activity in assay [1] is recorded as 23.62%; in assay [2], 28.02%; in assay [3] it was 29.37%.

In the case of `COc1ccc(CCNC(=O)[C@@H]2CCC3=Nc4ccc(Cl)cc4CN32)cc1`, the Activity is reported as 17.35% in assay [1], 30.19% in assay [2] and 30.66% in assay [3].

`O=C(NNC(=O)[C@@H]1CCC2=Nc3ccc(Br)cc3CN21)c1ccc(F)cc1`: the Activity is given as 23.87% in assay [1], 19.88% in assay [2] and 19.48% in assay [3].

With `O=C(NCCc1ccccc1)[C@@H]1CCC2=Nc3ccc(Br)cc3CN21`, the Activity is recorded as 11.08% in assay [1], 7.54% in assay [2] and 10.59% in assay [3].

In the case of `CC(C(O)c1ccc(O)cc1)N1CCC(Cc2ccccc2)CC1` (stereo not given) [IFENPRODIL], the Activity in assay [1] was determined as 16.4%; in assay [2], 22.57%; in assay [3], 35.81%.

Consider `O=C(NCCc1cccc(O)c1)[C@@H]1CCC2=Nc3ccc(Br)cc3CN21`, for which the values for the Activity in assay [1], in assay [2] and in assay [3] were 28.73%, 28.87% and 25.35%, respectively.

Turning to `Nc1ccc(CCNC(=O)[C@@H]2CCC3=Nc4ccc(Cl)cc4CN32)cc1`, the Activity is -5.03% in assay [1], -16.58% in assay [2] and -15.32% in assay [3].

For `O=C(NCCc1ccc(F)cc1)[C@@H]1CCC2=Nc3ccc(Cl)cc3CN21`, the Activity was 13.45% in assay [1], 27.96% in assay [2] and 26.14% in assay [3].

Take `Nc1ccc(C(=O)NNC(=O)[C@@H]2CCC3=Nc4ccc(Br)cc4CN32)cc1`: the Activity is 25.12% in assay [1], 24.22% in assay [2] and 15.62% in assay [3].

As to `O=C(NCCc1ccc(F)cc1)[C@@H]1CCC2=Nc3ccc(Br)cc3CN21`, the Activity is listed as 4.05% in assay [1], 7.08% in assay [2] and -2.81% in assay [3].

Consider `COc1ccc(C(=O)NNC(=O)[C@@H]2CCC3=Nc4ccccc4CN32)cc1`, for which the Activity was 12.59% in assay [1], 17.74% in assay [2] and 22.42% in assay [3].

In the case of `COc1ccc(CCNC(=O)[C@@H]2CCC3=Nc4ccc(Br)cc4CN32)cc1`, the Activity is recorded as 27.75% in assay [1], 27.25% in assay [2] and 17.27% in assay [3].

Regarding `COc1ccc(C(=O)NNC(=O)[C@@H]2CCC3=Nc4ccc(Cl)cc4CN32)cc1`, the Activity came out at 19.6% in assay [1], 20.2% in assay [2] and 12.17% in assay [3].

Consider `O=C(NCCc1ccccc1)[C@@H]1CCC2=Nc3ccc(Cl)cc3CN21`, for which the Activity came out at 13.21% in assay [1], 5.78% in assay [2] and 10.01% in assay [3].

In the case of `O=C(NNC(=O)[C@@H]1CCC2=Nc3ccc(Cl)cc3CN21)c1ccc(O)cc1`, the figures for the Activity in assay [1], in assay [2] and in assay [3] were 16.03%, 22.55% and 22.58%, respectively.

Regarding `O=C(NNC(=O)[C@@H]1CCC2=Nc3ccc(Br)cc3CN21)c1ccccc1`, the Activity in assay [1] was determined as 7.13%; in assay [2] it was 20.92%; in assay [3], 18.22%.

For `COc1ccc(C(=O)NNC(=O)[C@@H]2CCC3=Nc4ccc(Br)cc4CN32)cc1`, the Activity came out at 9.01% in assay [1], 15.94% in assay [2] and 19.77% in assay [3].

As for `O=C(NCCc1cccc(O)c1)[C@@H]1CCC2=Nc3ccccc3CN21`, the Activity in assay [1] turned out to be 29.63%; in assay [2], 29.17%; in assay [3], 24.42%.

For the compound `O=C(NNC(=O)[C@@H]1CCC2=Nc3ccc(Cl)cc3CN21)c1ccccc1`, the Activity amounted to 26.91% in assay [1], 24.25% in assay [2] and 19.76% in assay [3].

Values taken from ChEMBL document CHEMBL5252602, “Identification and in silicon binding study of a novel NR2B selective NMDAR antagonist” (Bioorg Med Chem Lett, 2023).
